This test has as its target T1, human P2X4 (Homo sapiens, UniProt Q99571).
T1 sequence (Q99571 1-388): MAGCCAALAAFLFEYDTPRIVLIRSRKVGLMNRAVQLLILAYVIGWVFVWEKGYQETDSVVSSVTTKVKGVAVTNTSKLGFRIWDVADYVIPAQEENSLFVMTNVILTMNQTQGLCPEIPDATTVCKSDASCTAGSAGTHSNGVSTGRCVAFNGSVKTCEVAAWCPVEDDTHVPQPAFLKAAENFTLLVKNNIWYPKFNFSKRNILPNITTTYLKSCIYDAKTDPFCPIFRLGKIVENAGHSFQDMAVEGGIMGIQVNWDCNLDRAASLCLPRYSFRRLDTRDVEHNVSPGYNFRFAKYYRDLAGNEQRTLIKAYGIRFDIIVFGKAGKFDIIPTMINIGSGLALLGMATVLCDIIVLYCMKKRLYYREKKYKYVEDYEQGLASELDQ
Briefly: Human P2X4 HEK Cell FLIPR Assay. To be noted: agonist Bz-ATP at EC80; for Emax: HEK293, HEK293 cells, percentage of maximal inhibition, read-out: Human P2X4 HEK Cells (FLIPR Assay) avg Efficacy [%]; for IC50: HEK293 cells, individual values listed where some fall outside detection range. It is filed as cell-based. The gist of the method:
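Calcium flux read by FLIPR for 120 sec after Bz-ATP challenge at EC80 (established each assay day), following 30 min room-temperature compound preincubation in dye-loaded stable human P2X4 HEK293 cells. Peak RFU over basal normalized to agonist control; IC50, maximal inhibition and Hill coefficient from triplicate means.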

Drawing on patent US11524938B2, “Aromatic sulfonamide derivatives” (Bayer Pharma Aktiengesellschaft, priority 2016, dated 2022), this text covers Emax and IC50 for 30 molecules.

As for `Cc1cc(F)c(Br)cc1CC(=O)Nc1ccc(-n2cc(F)cn2)c(S(N)(=O)=O)c1` [Example 166, 2-(5-Bromo-4-fluoro-2-methylphenyl)-N-[4-(4-fluoro-1H-pyrazol-1-yl)-3-sulfamoylphenyl]acetamide], the Emax was found to be 78% and the IC50 (in general, the concentration that inhibits the measured activity by half) amounted to 1520 nM.

Take `CC(C)c1ccccc1CC(=O)Nc1ccc(-n2cc(F)cn2)c(S(N)(=O)=O)c1` [Example 167, N-[4-(4-Fluoro-1H-pyrazol-1-yl)-3-sulfamoylphenyl]-2-(2-isopropylphenyl)acetamide]: the Emax amounted to 94% and the IC50 turned out to be 64 nM.

For the molecule `NS(=O)(=O)c1cc(NC(=O)Cc2cc(F)ccc2Cl)ccc1-n1cc(F)cn1` [Example 168, 2-(2-Chloro-5-fluorophenyl)-N-[4-(4-fluoro-1H-pyrazol-1-yl)-3-sulfamoylphenyl]-acetamide], the Emax amounted to 75% and the IC50 amounted to 70 nM.

In the case of `NS(=O)(=O)c1cc(NC(=O)Cc2c(Cl)cccc2C(F)(F)F)ccc1-n1cc(F)cn1` [Example 169, 2-[2-Chloro-6-(trifluoromethyl)phenyl]-N-[4-(4-fluoro-1H-pyrazol-1-yl)-3-sulfamoyl-phenyl]acetamide], the Emax is 86% and the half-inhibitory concentration (IC50) amounted to 85 nM.

`CC(C(=O)Nc1ccc(-n2cc(F)cn2)c(S(N)(=O)=O)c1)c1c(F)cccc1F` (stereo not drawn) [Example 171, 2-(2,6-Difluorophenyl)-N-[4-(4-fluoro-1H-pyrazol-1-yl)-3-sulfamoylphenyl]-propanamide]: the Emax worked out at 90% and the IC50 is 2240 nM.

Regarding `Cc1ccc(CC(=O)Nc2ccc(-n3cc(Cl)cn3)c(S(N)(=O)=O)c2)cc1` [Example 172, N-[4-(4-Chloro-1H-pyrazol-1-yl)-3-sulfamoylphenyl]-2-(4-methylphenyl)acetamide], the Emax was 58% and the IC50 stood at 48 nM.

In the case of `Cc1ccccc1CC(=O)Nc1ccc(-n2cc(Cl)cn2)c(S(N)(=O)=O)c1` [Example 173, N-[4-(4-Chloro-1H-pyrazol-1-yl)-3-sulfamoylphenyl]-2-(2-methylphenyl)acetamide], the Emax was 80% and the IC50 stood at 28 nM.

As for `Cc1cccc(CC(=O)Nc2ccc(-n3cc(Cl)cn3)c(S(N)(=O)=O)c2)c1` [Example 174, N-[4-(4-Chloro-1H-pyrazol-1-yl)-3-sulfamoylphenyl]-2-(3-methylphenyl)acetamide], the Emax was 79% and the IC50 was found to be 45 nM.

As for `CCOc1ccccc1CC(=O)Nc1ccc(-n2cc(Cl)cn2)c(S(N)(=O)=O)c1` [Example 175, N-[4-(4-Chloro-1H-pyrazol-1-yl)-3-sulfamoylphenyl]-2-(2-ethoxyphenyl)acetamide], the Emax came out at 88% and the IC50 worked out at 226 nM.

Consider `CCOc1ccccc1CC(=O)Nc1ccc(-n2cc(C(F)(F)F)cn2)c(S(N)(=O)=O)c1` [Example 176, 2-(2-Ethoxyphenyl)-N-{3-sulfamoyl-4-[4-(trifluoromethyl)-1H-pyrazol-1-yl]phenyl}acetamide], for which the Emax amounted to 71% and the IC50 is 268 nM.

In the case of `NS(=O)(=O)c1cc(NC(=O)Cc2ccccc2Br)ccc1-n1cc(F)cn1` [Example 177, 2-(2-Bromophenyl)-N-[4-(4-fluoro-1H-pyrazol-1-yl)-3-sulfamoylphenyl]acetamide], the Emax is 83% and the IC50 was found to be 35 nM.

For the molecule `NS(=O)(=O)c1cc(NC(=O)Cc2ccc(Cl)cc2Cl)ccc1-n1cc(F)cn1` [Example 178, 2-(2,4-Dichlorophenyl)-N-[4-(4-fluoro-1H-pyrazol-1-yl)-3-sulfamoylphenyl]acetamide], the Emax was 70% and the IC50 is 40 nM.

On to `NS(=O)(=O)c1cc(NC(=O)Cc2c(Cl)cccc2Cl)ccc1-n1cc(F)cn1` [Example 179, 2-(2,6-Dichlorophenyl)-N-[4-(4-fluoro-1H-pyrazol-1-yl)-3-sulfamoylphenyl]acetamide], for which the Emax turned out to be 89% and the IC50 was 35 nM.

Regarding `N#Cc1cnn(-c2ccc(NC(=O)Cc3ccccc3[N+](=O)[O-])cc2S(N)(=O)=O)c1` [Example 180, N-[4-(4-Cyano-1H-pyrazol-1-yl)-3-sulfamoylphenyl]-2-(2-nitrophenyl)acetamide], the Emax is 77% and the IC50 came out at 319 nM.

For the molecule `N#Cc1cnn(-c2ccc(NC(=O)Cc3ccc(Cl)cc3)cc2S(N)(=O)=O)c1` [Example 181, 2-(4-Chlorophenyl)-N-[4-(4-cyano-1H-pyrazol-1-yl)-3-sulfamoylphenyl]acetamide], the Emax was determined as 59% and the IC50 was 179 nM.

As for `COc1ccccc1CC(=O)Nc1ccc(-n2cc(C#N)cn2)c(S(N)(=O)=O)c1` [Example 182, N-[4-(4-Cyano-1H-pyrazol-1-yl)-3-sulfamoylphenyl]-2-(2-methoxyphenyl)acetamide], the Emax is 89% and the IC50 is 161 nM.

For the molecule `N#Cc1cnn(-c2ccc(NC(=O)Cc3c(F)cccc3Cl)cc2S(N)(=O)=O)c1` [Example 183, 2-(2-Chloro-6-fluorophenyl)-N-[4-(4-cyano-1H-pyrazol-1-yl)-3-sulfamoylphenyl]-acetamide], the Emax amounted to 96% and the IC50 is 39 nM.

On to `N#Cc1cnn(-c2ccc(NC(=O)Cc3ccccc3C(F)(F)F)cc2S(N)(=O)=O)c1` [Example 184, N-[4-(4-Cyano-1H-pyrazol-1-yl)-3-sulfamoylphenyl]-2-[2-(trifluoromethyl)-phenyl]acetamide], for which the Emax amounted to 96% and the IC50 turned out to be 67 nM.

With `N#Cc1cnn(-c2ccc(NC(=O)Cc3cccc(F)c3)cc2S(N)(=O)=O)c1` [Example 185, N-[4-(4-Cyano-1H-pyrazol-1-yl)-3-sulfamoylphenyl]-2-(3-fluorophenyl)acetamide], the Emax was 71% and the IC50 came out at 248 nM.

Turning to `N#Cc1cnn(-c2ccc(NC(=O)Cc3ccc(Cl)cc3Cl)cc2S(N)(=O)=O)c1` [Example 186, N-[4-(4-Cyano-1H-pyrazol-1-yl)-3-sulfamoylphenyl]-2-(2,4-dichlorophenyl)acetamide], the Emax worked out at 78% and the IC50 worked out at 40 nM.

As for `N#Cc1cnn(-c2ccc(NC(=O)Cc3c(Cl)cccc3Cl)cc2S(N)(=O)=O)c1` [Example 187, N-[4-(4-Cyano-1H-pyrazol-1-yl)-3-sulfamoylphenyl]-2-(2,6-dichlorophenyl)acetamide], the Emax worked out at 84% and the IC50 came to 33 nM.

`N#Cc1cnn(-c2ccc(NC(=O)Cc3ccccc3Br)cc2S(N)(=O)=O)c1` [Example 188, 2-(2-Bromophenyl)-N-[4-(4-cyano-1H-pyrazol-1-yl)-3-sulfamoylphenyl]acetamide]: the Emax came out at 89% and the IC50 amounted to 31 nM.

For the molecule `N#Cc1cnn(-c2ccc(NC(=O)Cc3ccc(F)c(F)c3)cc2S(N)(=O)=O)c1` [Example 189, N-[4-(4-Cyano-1H-pyrazol-1-yl)-3-sulfamoylphenyl]-2-(3,4-difluorophenyl)acetamide], the Emax was determined as 60% and the IC50 was found to be 199 nM.

For the molecule `N#Cc1cnn(-c2ccc(NC(=O)Cc3cc(F)cc(F)c3)cc2S(N)(=O)=O)c1` [Example 190, N-[4-(4-Cyano-1H-pyrazol-1-yl)-3-sulfamoylphenyl]-2-(3,5-difluorophenyl)acetamide], the Emax came out at 58% and the IC50 is 540 nM.

For `N#Cc1cnn(-c2ccc(NC(=O)Cc3cccc(Cl)c3)cc2S(N)(=O)=O)c1` [Example 191, 2-(3-Chlorophenyl)-N-[4-(4-cyano-1H-pyrazol-1-yl)-3-sulfamoylphenyl]acetamide], the Emax turned out to be 76% and the IC50 amounted to 180 nM.

Regarding `N#Cc1cnn(-c2ccc(NC(=O)Cc3ccc(F)cc3)cc2S(N)(=O)=O)c1` [Example 192, N-[4-(4-Cyano-1H-pyrazol-1-yl)-3-sulfamoylphenyl]-2-(4-fluorophenyl)acetamide], the Emax stood at 69% and the IC50 worked out at 575 nM.

For `N#Cc1cnn(-c2ccc(NC(=O)Cc3ccccc3O)cc2S(N)(=O)=O)c1` [Example 193, N-[4-(4-Cyano-1H-pyrazol-1-yl)-3-sulfamoylphenyl]-2-(2-hydroxyphenyl)acetamide], the Emax stood at 84% and the concentration for half-maximal inhibition (IC50) is 427 nM.

Turning to `N#Cc1cnn(-c2ccc(NC(=O)Cc3ccc(O)cc3)cc2S(N)(=O)=O)c1` [Example 194, N-[4-(4-Cyano-1H-pyrazol-1-yl)-3-sulfamoylphenyl]-2-(4-hydroxyphenyl)acetamide], the Emax is 84% and the IC50 worked out at 325 nM.

Take `Cc1ccc(CC(=O)Nc2ccc(-n3cc(C#N)cn3)c(S(N)(=O)=O)c2)cc1` [Example 195, N-[4-(4-Cyano-1H-pyrazol-1-yl)-3-sulfamoylphenyl]-2-(4-methylphenyl)acetamide]: the Emax turned out to be 68% and the IC50 was 86 nM.

For `COc1ccc(CC(=O)Nc2ccc(-n3cc(C#N)cn3)c(S(N)(=O)=O)c2)cc1` [Example 196, N-[4-(4-Cyano-1H-pyrazol-1-yl)-3-sulfamoylphenyl]-2-(4-methoxyphenyl)acetamide], the Emax is 75% and the IC50 was determined as 164 nM.
